# Measurements published in article PMC5031918 (Journal of Antimicrobial Chemotherapy, 2016).
# Entries after “also recorded” stand apart in the source; their conditions may differ. Like-named read-outs stand apart in the source and are kept apart here.
# Assays:
# CEM-WT cells = experiment: [3H]raltegravir cellular accumulation ratio; type: in vitro ADME, human; conditions: 30 min; for Effect of 100 μM cold drug (cis inhibitor) on [3H]raltegravir CAR / CAR of raltegravir: [3H]raltegravir 1 μM; for Effect of efflux inhibitor on [3H]raltegravir CAR: MK571 100 μM, XR9051 10 μM or 1 μM (Figure 1a)
# [1] = target: T1, MRP1 (ABCC1), CEM-MRP1 cells (Homo sapiens, UniProt P33527); experiment: [3H]raltegravir cellular accumulation ratio; conditions: 30 min; for Effect of 100 μM cold drug (cis inhibitor) on [3H]raltegravir CAR: [3H]raltegravir 1 μM
# T1 sequence (P33527 whole entry): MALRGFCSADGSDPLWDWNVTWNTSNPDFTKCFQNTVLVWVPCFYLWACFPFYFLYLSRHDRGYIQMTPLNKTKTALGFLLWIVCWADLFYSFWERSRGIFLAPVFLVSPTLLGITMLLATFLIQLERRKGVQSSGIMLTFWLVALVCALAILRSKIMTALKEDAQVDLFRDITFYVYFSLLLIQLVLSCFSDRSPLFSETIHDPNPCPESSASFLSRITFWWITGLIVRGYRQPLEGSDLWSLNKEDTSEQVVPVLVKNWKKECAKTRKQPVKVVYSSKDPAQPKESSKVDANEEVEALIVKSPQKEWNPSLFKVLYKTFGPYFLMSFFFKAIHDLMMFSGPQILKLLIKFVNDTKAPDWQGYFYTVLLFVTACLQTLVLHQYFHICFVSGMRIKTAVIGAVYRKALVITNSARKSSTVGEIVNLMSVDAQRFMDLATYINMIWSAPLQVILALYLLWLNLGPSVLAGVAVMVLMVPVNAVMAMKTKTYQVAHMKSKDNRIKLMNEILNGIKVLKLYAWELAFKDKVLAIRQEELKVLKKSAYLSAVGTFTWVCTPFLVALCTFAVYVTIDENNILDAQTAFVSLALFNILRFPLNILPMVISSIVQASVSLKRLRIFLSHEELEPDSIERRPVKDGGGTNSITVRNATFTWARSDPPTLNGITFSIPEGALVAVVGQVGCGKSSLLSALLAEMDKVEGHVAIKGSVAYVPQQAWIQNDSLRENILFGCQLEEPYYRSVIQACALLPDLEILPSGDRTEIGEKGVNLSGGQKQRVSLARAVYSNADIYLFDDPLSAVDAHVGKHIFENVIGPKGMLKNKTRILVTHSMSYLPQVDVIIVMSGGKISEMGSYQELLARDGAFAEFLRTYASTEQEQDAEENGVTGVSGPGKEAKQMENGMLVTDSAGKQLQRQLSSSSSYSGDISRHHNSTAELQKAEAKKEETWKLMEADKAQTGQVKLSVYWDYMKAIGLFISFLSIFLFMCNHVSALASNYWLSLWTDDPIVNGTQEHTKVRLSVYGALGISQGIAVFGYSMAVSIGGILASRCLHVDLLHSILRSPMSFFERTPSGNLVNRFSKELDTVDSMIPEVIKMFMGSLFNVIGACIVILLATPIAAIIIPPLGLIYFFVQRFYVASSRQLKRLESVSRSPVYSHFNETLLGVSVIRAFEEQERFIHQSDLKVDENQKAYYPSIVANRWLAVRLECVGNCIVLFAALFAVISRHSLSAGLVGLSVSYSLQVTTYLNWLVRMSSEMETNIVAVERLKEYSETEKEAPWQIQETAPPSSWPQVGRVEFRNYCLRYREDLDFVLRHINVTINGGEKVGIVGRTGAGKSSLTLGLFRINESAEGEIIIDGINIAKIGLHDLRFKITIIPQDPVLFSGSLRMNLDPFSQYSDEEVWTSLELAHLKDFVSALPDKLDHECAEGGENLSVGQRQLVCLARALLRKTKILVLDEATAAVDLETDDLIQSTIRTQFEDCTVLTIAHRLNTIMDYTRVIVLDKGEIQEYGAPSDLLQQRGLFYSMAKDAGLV
# [2] = target: T1, MRP1 (ABCC1), CEM-MRP1 cells; experiment: [3H]ritonavir cellular accumulation ratio; type: in vitro ADME; conditions: for Increase of the CAR of [3H]ritonavir by 100 μM cold drug: [3H]ritonavir 1 μM, 30 min
# [3] = target: T1, MRP1 (ABCC1), CEM-MRP1 cells; experiment: Calcein-AM fluorescence accumulation assay, flow cytometry, CEM-MRP1 cells; type: cell-based; conditions: antiviral drug at 100 μM, calcein-AM 0.25 μM
# CEM-WT (CEM-CCRF) cells = experiment: Calcein-AM fluorescence accumulation assay, flow cytometry, CEM-WT cells; type: cell-based, human; conditions: antiviral drug at 100 μM, calcein-AM 0.25 μM
# [4] = target: T2, P-gp (ABCB1), CEM-P-gp cells (Homo sapiens, UniProt P08183); experiment: [3H]raltegravir cellular accumulation ratio; type: in vitro ADME; conditions: 30 min
# T2 sequence (P08183 whole entry): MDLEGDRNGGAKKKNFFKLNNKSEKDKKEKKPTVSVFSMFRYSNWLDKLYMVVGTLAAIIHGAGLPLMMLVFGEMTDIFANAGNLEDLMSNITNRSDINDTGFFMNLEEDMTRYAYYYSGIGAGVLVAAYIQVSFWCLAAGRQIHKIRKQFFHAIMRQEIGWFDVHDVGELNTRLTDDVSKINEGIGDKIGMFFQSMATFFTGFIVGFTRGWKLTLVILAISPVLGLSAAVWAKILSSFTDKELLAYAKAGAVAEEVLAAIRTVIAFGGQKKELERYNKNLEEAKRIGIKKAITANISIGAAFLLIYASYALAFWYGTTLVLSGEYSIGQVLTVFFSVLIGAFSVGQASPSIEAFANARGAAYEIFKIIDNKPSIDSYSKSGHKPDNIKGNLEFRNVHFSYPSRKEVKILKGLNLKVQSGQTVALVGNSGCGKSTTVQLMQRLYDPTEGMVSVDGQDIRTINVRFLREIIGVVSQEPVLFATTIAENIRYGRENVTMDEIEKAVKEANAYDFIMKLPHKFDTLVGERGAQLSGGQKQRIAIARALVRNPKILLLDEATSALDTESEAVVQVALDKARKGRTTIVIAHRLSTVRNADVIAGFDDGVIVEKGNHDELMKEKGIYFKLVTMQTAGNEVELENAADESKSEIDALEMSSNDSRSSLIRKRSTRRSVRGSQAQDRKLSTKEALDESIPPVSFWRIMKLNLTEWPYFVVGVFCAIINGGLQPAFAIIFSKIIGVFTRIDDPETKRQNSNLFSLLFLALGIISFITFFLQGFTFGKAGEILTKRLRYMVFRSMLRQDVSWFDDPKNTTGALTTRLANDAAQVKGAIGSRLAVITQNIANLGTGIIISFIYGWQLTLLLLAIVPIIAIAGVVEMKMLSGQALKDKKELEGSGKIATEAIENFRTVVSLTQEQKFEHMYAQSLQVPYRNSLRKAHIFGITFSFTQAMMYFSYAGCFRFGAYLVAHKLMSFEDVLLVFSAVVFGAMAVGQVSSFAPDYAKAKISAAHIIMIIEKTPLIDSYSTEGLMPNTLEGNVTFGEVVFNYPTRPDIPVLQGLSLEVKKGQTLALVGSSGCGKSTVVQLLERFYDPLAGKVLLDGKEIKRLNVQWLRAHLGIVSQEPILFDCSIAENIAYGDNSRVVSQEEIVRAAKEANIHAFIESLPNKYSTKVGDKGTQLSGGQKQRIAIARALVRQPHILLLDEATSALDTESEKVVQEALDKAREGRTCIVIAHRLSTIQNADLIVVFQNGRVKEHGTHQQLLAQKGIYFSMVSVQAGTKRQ
# [5] = target: T2, P-gp (ABCB1), CEM-P-gp cells; experiment: [3H]ritonavir cellular accumulation ratio; type: in vitro ADME; conditions: reversan 10 μM, P = 0.0021
# [6] = target: P-gp, primary CD3+CD4+ T cells (Homo sapiens, UniProt P08183); type: in vitro ADME; conditions: XR9051 1 μM, P = 0.017
# P-gp, primary CD3+CD4+ T cells, sequence (P08183 whole entry): as above
# primary CD4+ T cells = experiment: Calcein accumulation/efflux in primary CD4+ T cells, flow cytometry; type: cell-based, human
compound,measurement,setting,value
CC(C)c1nc(CN(C)C(=O)N[C@H](C(=O)N[C@@H](Cc2ccccc2)C[C@H](O)[C@H](Cc2ccccc2)NC(=O)OCc2cncs2)C(C)C)cs1 [ritonavir],Effect of 100 μM cold drug (cis inhibitor) on [3H]raltegravir CAR,CEM-WT cells,did not affect
same,Effect of 100 μM cold drug (cis inhibitor) on [3H]raltegravir CAR,[1]; CEM-MRP1,did not affect
same,Increase of the CAR of [3H]ritonavir by 100 μM cold drug,[2],25%
Cc1cccc(C)c1OCC(=O)N[C@@H](Cc1ccccc1)[C@@H](O)C[C@H](Cc1ccccc1)NC(=O)[C@H](C(C)C)N1CCCNC1=O [lopinavir],"Fluorescence ratio (MFI treated/MFI mock cells), calcein",[3],4.20
same,"Fluorescence ratio (MFI treated/MFI mock cells), calcein",CEM-WT (CEM-CCRF) cells,0.60
Cc1ccnc2c1NC(=O)c1cccnc1N2C1CC1 [nevirapine],"Fluorescence ratio (MFI treated/MFI mock cells), calcein",[3],1.23
same,"Fluorescence ratio (MFI treated/MFI mock cells), calcein",CEM-WT (CEM-CCRF) cells,0.92
Cc1nnc(C(=O)NC(C)(C)c2nc(C(=O)NCc3ccc(F)cc3)c(O)c(=O)n2C)o1 [raltegravir],Effect of 100 μM cold drug (cis inhibitor) on [3H]raltegravir CAR,CEM-WT cells,no changes
same,CAR of raltegravir,"CEM-WT cells; accumulation experiments (Figure 1b), normalized to 100%",3.04 ± 0.62
same,CAR of raltegravir,CEM-WT cells; time-course (Figure 1a),3.12 ± 0.12
same,CAR of raltegravir,"[4]; CEM-P-gp, [3H]raltegravir 1 μM, co-incubation with XR9051 1 μM, P = 0.0025",2.46 ± 0.10
same,Reduction in intracellular raltegravir accumulation with respect to CEM-WT,[4]; untreated CEM-P-gp,52%
same,CAR raltegravir P-gp/CAR raltegravir WT,"[4]; untreated cells, P < 0.0001",0.48
same,Effect of 100 μM cold drug (cis inhibitor) on [3H]raltegravir CAR,[1]; CEM-MRP1,no changes
same,Reduction in intracellular raltegravir accumulation with respect to control CEM-WT cells,[1]; untreated CEM-MRP1,> 30%
same,CAR raltegravir MRP1/CAR raltegravir WT,"[1]; untreated cells, P < 0.0001",0.64
same,Increase of the CAR of [3H]ritonavir by 100 μM cold drug,[2],did not inhibit
O=C(NCCCN1CCOCC1)c1cnn2c(-c3ccccc3)cc(-c3ccccc3)nc12 [reversan],Effect of reversan on reduced [3H]ritonavir accumulation,[5],reversed in part
same,Effect of reversan on reduced [3H]ritonavir accumulation,"[2]; reversan 10 μM, P = 0.037",reversed in part
XR9051,Effect of efflux inhibitor on [3H]raltegravir CAR,CEM-WT cells,did not significantly alter; also recorded: did not affect
same,Effect of efflux inhibitor on [3H]raltegravir CAR,"[4]; CEM-P-gp, XR9051 10 μM or 1 μM (Figure 1a)",significantly increased accumulation
same,Effect of efflux inhibitor on [3H]raltegravir CAR,"[1]; CEM-MRP1, MK571 100 μM, XR9051 10 μM",neither MK571 nor XR9051 affected
same,Effect of XR9051 on reduced [3H]raltegravir accumulation,[6]; CD3+CD4+P-gp^high cells,significantly reverse this effect
same,Effect of XR9051 on reduced [3H]raltegravir accumulation,[6]; total unsorted PBMCs,could also be reversed
same,Effect on activity of P-gp^high cells (calcein efflux),"primary CD4+ T cells; non-stimulated CD4+ cells, XR9051 1 μM during the 2 h efflux time",remarkably inhibited
CC(C)(C)NC(=O)[C@@H]1CN(Cc2cccnc2)CCN1C[C@@H](O)C[C@@H](Cc1ccccc1)C(=O)N[C@H]1c2ccccc2C[C@H]1O [indinavir],"Fluorescence ratio (MFI treated/MFI mock cells), calcein",[3],2.11
same,"Fluorescence ratio (MFI treated/MFI mock cells), calcein",CEM-WT (CEM-CCRF) cells,1.28
O=C1Nc2ccc(Cl)cc2[C@@](C#CC2CC2)(C(F)(F)F)O1 [efavirenz],"Fluorescence ratio (MFI treated/MFI mock cells), calcein",[3],4.38
same,"Fluorescence ratio (MFI treated/MFI mock cells), calcein",CEM-WT (CEM-CCRF) cells,0.94
COC(=O)N[C@H](C(=O)N[C@@H](Cc1ccccc1)[C@@H](O)CN(Cc1ccc(-c2ccccn2)cc1)NC(=O)[C@@H](NC(=O)OC)C(C)(C)C)C(C)(C)C [atazanavir],"Fluorescence ratio (MFI treated/MFI mock cells), calcein",[3],2.54
same,"Fluorescence ratio (MFI treated/MFI mock cells), calcein",CEM-WT (CEM-CCRF) cells,0.63
COc1ccc2c3c([nH]c2c1)[C@H](CC(C)C)N1C(=O)[C@H](CCC(=O)OC(C)(C)C)NC(=O)[C@@H]1C3 [Ko143],Inhibition of calcein accumulation,"primary CD4+ T cells; primary CD4+ T cells, low doses (<1 μM) of Ko143, data not shown",null inhibition
CC(C)CN(C[C@@H](O)[C@H](Cc1ccccc1)NC(=O)O[C@H]1CCOC1)S(=O)(=O)c1ccc(N)cc1 [amprenavir],"Fluorescence ratio (MFI treated/MFI mock cells), calcein",[3],3.49
same,"Fluorescence ratio (MFI treated/MFI mock cells), calcein",CEM-WT (CEM-CCRF) cells,0.87
CC(C)(C)NC(=O)[C@@H]1C[C@@H]2CCCC[C@@H]2CN1C[C@@H](O)[C@H](Cc1ccccc1)NC(=O)[C@H](CC(N)=O)NC(=O)c1ccc2ccccc2n1 [saquinavir],Effect of 100 μM cold drug (cis inhibitor) on [3H]raltegravir CAR,CEM-WT cells,did not affect
same,"Fluorescence ratio (MFI treated/MFI mock cells), calcein",[3],3.94
same,Effect of 100 μM cold drug (cis inhibitor) on [3H]raltegravir CAR,"[4]; CEM-P-gp, [3H]raltegravir 1 μM",significantly competed with raltegravir efflux
same,Effect of 100 μM cold drug (cis inhibitor) on [3H]raltegravir CAR,[1]; CEM-MRP1,did not affect
same,"Fluorescence ratio (MFI treated/MFI mock cells), calcein",CEM-WT (CEM-CCRF) cells,0.77
CN(C)C(=O)CCSC(SCCC(=O)O)c1cccc(/C=C/c2ccc3ccc(Cl)cc3n2)c1 (stereo not shown) [MK571],Effect of efflux inhibitor on [3H]raltegravir CAR,CEM-WT cells,did not affect
